This passage reports EC50 results from patent US20250250269A1, “HETEROCYCLIC GLP-1 AGONISTS” (Gasherbrum Bio, Inc., priority 2022, published 2025).

The target in the assay is T1, GLP-1 Receptor (Homo sapiens, UniProt P43220).
T1 construct: host or cells: HEK293/CRE-Luc (HEK293/GLP1R/CRE-LUC)
T1 sequence (P43220 24-463, species assumed): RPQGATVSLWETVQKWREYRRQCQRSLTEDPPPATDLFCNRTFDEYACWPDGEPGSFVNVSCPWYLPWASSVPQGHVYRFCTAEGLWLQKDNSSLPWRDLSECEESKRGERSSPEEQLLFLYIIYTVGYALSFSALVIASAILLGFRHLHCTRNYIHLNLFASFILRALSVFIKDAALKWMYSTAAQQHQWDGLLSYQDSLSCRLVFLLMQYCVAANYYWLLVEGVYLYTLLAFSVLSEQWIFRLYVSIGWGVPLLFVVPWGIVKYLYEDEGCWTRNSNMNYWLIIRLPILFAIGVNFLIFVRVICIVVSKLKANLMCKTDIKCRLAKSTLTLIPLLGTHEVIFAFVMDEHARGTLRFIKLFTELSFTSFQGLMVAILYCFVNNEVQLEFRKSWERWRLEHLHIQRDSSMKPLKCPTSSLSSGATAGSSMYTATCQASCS
The assay is described as follows: GLP-1R agonist cAMP stimulation assay (HEK293/GLP1R/CRE-LUC cells, Cisbio cAMP dynamic 2 kit). Format: cell-based. As to conditions: HEK293/CRE-Luc cells stably expressing the GLP-1 Receptor, 30 min at 37° C. How it is done:
Activation of GLP-1 receptor is known to stimulate cyclic AMP (cAMP) production in cells which indicates primary coupling to the Gas subunit of the G protein heterotrimeric complex.
To optimize functional activity directed toward Gas coupling, a HEK293/CRE-Luc cell line developed by HDB stably expressing the GLP-1 Receptor was used. 200× concentration of compound working solutions were prepared (Agilent Technologies Bravo) with ½ log serial dilution in 384-well Echo LDV plate (Labcyte, Cat #LP-0200). […] 200× concentration of compound working solutions were moved to 384-well white low volume plate (Greiner, Cat #784075) using Labcyte ECHO550. 1×10^5 cells/mL HEK293/GLP1R/CRE-LUC (HD Biosciences) cell suspensions prepared with assay buffer [DPBS containing 0.5 mM IBMX (Sigma, Cat #15879) and 0.1% BSA (GENVIEW, Cat #FA016-100g)], 10 μL cell suspensions were added to each well of previous generated assay plate which already contains […] compound at 200×concentration using ThermoFisher Multidrop Combi (1000 cells/well). Seal the plate and incubate at 37° C. with 5% CO2 for 30 min.
After incubation the cAMP assay signal was generated using cAMP dynamic 2 Kit (Cisbio). 5 μL cAMP-d2 working solution was added to each well, followed with 5 μL Anti-cAMP antibody-cryptate working solution added to each well using ThermoFisher Multidrop Combi. Incubate at room temperature for 1 hour protected from light. Read the fluorescence at 665 and 615 nm with Reader PerkinElmer EnVision.
What is called EC50 is the concentration at which the effect is half-maximal. For `N#Cc1nnc(-c2cc3nc(CN4CC=C(c5ccc(F)c(OCc6ccc(Cl)cc6F)c5)CC4)n(C[C@@H]4CCO4)c3cn2)[nH]1` [Compound 33, (S)-5-(2-((4-(3-((4-chloro-2-fluorobenzyl)oxy)-4-fluorophenyl)-3,6-dihydropyridin-1(2H)-yl)methyl)-3-(oxetan-2-ylmethyl)-3H-imidazo[4,5-c]pyridin-6-yl)-4H-1,2,4-triazole-3-carbonitrile], the concentration giving a half-maximal response (EC50) is less than 1 nM. Consider `C[C@]1(c2ccc(Cl)cc2F)Oc2cccc(C3CCN(Cc4nc5c(F)c(-c6noc(=O)[nH]6)ccc5n4C[C@@H]4CCO4)CC3)c2O1` [Compound 34, 3-(2-((4-((S)-2-(4-chloro-2-fluorophenyl)-2-methylbenzo[d][1,3]dioxol-4-yl)piperidin-1-yl)methyl)-4-fluoro-1-(((S)-oxetan-2-yl)methyl)-1H-benzo[d]imidazol-5-yl)-1,2,4-oxadiazol-5(4H)-one], for which the EC50 was less than 1 nM. As to `O=c1[nH]c(-c2ccc3c(nc(CN4CCC(c5cccc(OCc6ccc(Cl)cc6F)n5)CC4)n3C[C@@H]3CCO3)c2F)no1` [Compound 35, (S)-3-(2-((4-(6-((4-chloro-2-fluorobenzyl)oxy)pyridin-2-yl)piperidin-1-yl)methyl)-4-fluoro-1-(oxetan-2-ylmethyl)-1H-benzo[d]imidazol-5-yl)-1,2,4-oxadiazol-5(4H)-one], the EC50 is less than 1 nM. Turning to `C[C@]1(c2ccc(Cl)cn2)Oc2cccc(C3CCN(Cc4nc5c(F)c(-c6noc(=O)[nH]6)ccc5n4C[C@@H]4CCO4)CC3)c2O1` [Compound 36, 3-(2-((4-((S)-2-(5-chloropyridin-2-yl)-2-methylbenzo[d][1,3]dioxol-4-yl)piperidin-1-yl)methyl)-4-fluoro-1-(((S)-oxetan-2-yl)methyl)-1H-benzo[d]imidazol-5-yl)-1,2,4-oxadiazol-5(4H)-one], the EC50 was less than 1 nM. For `C[C@]1(c2ccc(Cl)cn2)Oc2cccc(C3CCN(Cc4nc5cc(-c6noc(=O)[nH]6)cc(F)c5n4C[C@@H]4CCO4)CC3)c2O1` [Compound 37, 3-(2-((4-((S)-2-(5-chloropyridin-2-yl)-2-methylbenzo[d][1,3]dioxol-4-yl)piperidin-1-yl)methyl)-7-fluoro-1-(((S)-oxetan-2-yl)methyl)-1H-benzo[d]imidazol-5-yl)-1,2,4-oxadiazol-5(4H)-one], the EC50 fell in the range of 1 to 100 nM. As to `O=c1[nH]c(-c2cc(F)c3c(c2)nc(CN2CCC(c4cccc(OCc5ccc(Cl)cc5F)n4)CC2)n3C[C@@H]2CCO2)no1` [Compound 38, (S)-3-(2-((4-(6-((4-chloro-2-fluorobenzyl)oxy)pyridin-2-yl)piperidin-1-yl)methyl)-7-fluoro-1-(oxetan-2-ylmethyl)-1H-benzo[d]imidazol-5-yl)-1,2,4-oxadiazol-5(4H)-one], the EC50 was in the range of 1 to 100 nM. On to `CC1(c2ccc(Cl)cc2F)Oc2cccc(C3=CCN(Cc4nc5cc(-c6noc(=O)[nH]6)cc(F)c5n4C[C@@H]4CCO4)CC3)c2O1` (stereo partly drawn) [Compound 39, 3-(2-((4-(2-(4-chloro-2-fluorophenyl)-2-methylbenzo[d][1,3]dioxol-4-yl)-3,6-dihydropyridin-1(2H)-yl)methyl)-7-fluoro-1-(((S)-oxetan-2-yl)methyl)-1H-benzo[d]imidazol-5-yl)-1,2,4-oxadiazol-5(4H)-one], for which the 50% effective concentration (EC50) lay in the range of 1 to 100 nM. Molecule `Cc1nnc(-c2ccc3c(nc(CN4CCC(c5cccc6c5O[C@@](C)(c5ccc(Cl)cc5F)O6)CC4)n3C[C@@H]3CCO3)c2F)[nH]1` [Compound 40, 2-((4-((S)-2-(4-chloro-2-fluorophenyl)-2-methylbenzo[d][1,3]dioxol-4-yl)piperidin-1-yl)methyl)-4-fluoro-5-(5-methyl-4H-1,2,4-triazol-3-yl)-1-(((S)-oxetan-2-yl)methyl)-1H-benzo[d]imidazole] displayed an EC50 of less than 1 nM. For `Cc1nnc(-c2cc(F)c3c(c2)nc(CN2CCC(c4cccc5c4O[C@@](C)(c4ccc(Cl)cc4F)O5)CC2)n3C[C@@H]2CCO2)[nH]1` [Compound 41, 2-((4-((S)-2-(4-chloro-2-fluorophenyl)-2-methylbenzo[d][1,3]dioxol-4-yl)piperidin-1-yl)methyl)-7-fluoro-5-(5-methyl-4H-1,2,4-triazol-3-yl)-1-(((S)-oxetan-2-yl)methyl)-1H-benzo[d]imidazole], the EC50 is less than 1 nM. Regarding `Cc1nnc(-c2cc(F)c3c(c2)nc(CN2CCC(c4cccc5c4O[C@@](C)(c4ccc(Cl)cn4)O5)CC2)n3C[C@@H]2CCO2)[nH]1` [Compound 42, 2-((4-((S)-2-(5-chloropyridin-2-yl)-2-methylbenzo[d][1,3]dioxol-4-yl)piperidin-1-yl)methyl)-7-fluoro-5-(5-methyl-4H-1,2,4-triazol-3-yl)-1-(((S)-oxetan-2-yl)methyl)-1H-benzo[d]imidazole], the EC50 was less than 1 nM. For `Cc1nnc(-c2cc(F)c3c(c2)nc(CN2CC=C(c4cccc5c4OC(C)(c4ccc(Cl)cc4F)O5)CC2)n3C[C@@H]2CCO2)[nH]1` (stereo partly drawn) [Compound 43, 2-((4-(2-(4-chloro-2-fluorophenyl)-2-methylbenzo[d][1,3]dioxol-4-yl)-3,6-dihydropyridin-1(2H)-yl)methyl)-7-fluoro-5-(5-methyl-4H-1,2,4-triazol-3-yl)-1-(((S)-oxetan-2-yl)methyl)-1H-benzo[d]imidazole] the value was 1 to 100 nM.

`C[C@]1(c2ccc(Cl)cc2F)Oc2cccc(C3=CCN(Cc4nc5cc(-c6nnc(C(F)(F)F)[nH]6)ncc5n4C[C@@H]4CCO4)CC3)c2O1` [Compound 44, 2-((4-((S)-2-(4-chloro-2-fluorophenyl)-2-methylbenzo[d][1,3]dioxol-4-yl)-3,6-dihydropyridin-1(2H)-yl)methyl)-3-(((S)-oxetan-2-yl)methyl)-6-(5-(trifluoromethyl)-4H-1,2,4-triazol-3-yl)-3H-imidazo[4,5-c]pyridine] gave an EC50 of less than 1 nM. The same measure for `C[C@]1(c2ccc(Cl)cc2F)Oc2cccc(C3=CCN(Cc4nc5cc(-c6nnc(C(F)(F)F)[nH]6)cnc5n4C[C@@H]4CCO4)CC3)c2O1` [Compound 45, 2-((4-((S)-2-(4-chloro-2-fluorophenyl)-2-methylbenzo[d][1,3]dioxol-4-yl)-3,6-dihydropyridin-1(2H)-yl)methyl)-3-(((S)-oxetan-2-yl)methyl)-6-(5-(trifluoromethyl)-4H-1,2,4-triazol-3-yl)-3H-imidazo[4,5-b]pyridine]: less than 1 nM; for `C[C@]1(c2ccc(Cl)cc2F)Oc2cccc(C3=CCN(Cc4nc5cc(-c6nnc(C(F)(F)F)[nH]6)nnc5n4C[C@@H]4CCO4)CC3)c2O1` [Compound 46, 6-((4-((S)-2-(4-chloro-2-fluorophenyl)-2-methylbenzo[d][1,3]dioxol-4-yl)-3,6-dihydropyridin-1(2H)-yl)methyl)-7-(((S)-oxetan-2-yl)methyl)-3-(5-(trifluoromethyl)-4H-1,2,4-triazol-3-yl)-7H-imidazo[4,5-c]pyridazine]: less than 1 nM; for `Fc1cc(Cl)ccc1COc1ccc(F)c(C2CCN(Cc3nc4cc(-c5nnc(C(F)(F)F)[nH]5)ncc4n3C[C@@H]3CCO3)CC2)n1` [Compound 47, 6-[(4-chloro-2-fluorophenyl)methoxy]-3-fluoro-2-{1-[(3-{[(2S)-oxetan-2-yl]methyl}-6-[5-(trifluoromethyl)-4H-1,2,4-triazol-3-yl]-3H-imidazo[4,5-c]pyridin-2-yl)methyl]piperidin-4-yl}pyridine]: less than 1 nM.

In turn, `Fc1cc(Cl)ccc1COc1nc(N2CCN(Cc3nc4cc(-c5nnc(C(F)(F)F)[nH]5)ncc4n3C[C@@H]3CCO3)CC2)c(F)cc1F` [Compound 48, 1-{6-[(4-chloro-2-fluorophenyl)methoxy]-3,5-difluoropyridin-2-yl}-4-[(3-{[(2S)-oxetan-2-yl]methyl}-6-[5-(trifluoromethyl)-4H-1,2,4-triazol-3-yl]-3H-imidazo[4,5-c]pyridin-2-yl)methyl]piperazine] yielded a half-maximal effective concentration (EC50) of less than 1 nM.

The molecule `Fc1cc(Cl)ccc1COc1nc(C2CCN(Cc3nc4cc(-c5nnc(C(F)(F)F)[nH]5)ncc4n3C[C@@H]3CCO3)CC2)c(F)cc1F` [Compound 49, 2-[(4-chloro-2-fluorophenyl)methoxy]-3,5-difluoro-6-{1-[(3-{[(2S)-oxetan-2-yl]methyl}-6-[5-(trifluoromethyl)-4H-1,2,4-triazol-3-yl]-3H-imidazo[4,5-c]pyridin-2-yl)methyl]piperidin-4-yl}pyridine] showed a half-maximal effective concentration (EC50) of less than 1 nM. As to `Fc1cc(Cl)ccc1COc1nc(C2CCN(Cc3nc4cc(-c5nnc(C(F)(F)F)[nH]5)nnc4n3C[C@@H]3CCO3)CC2)c(F)cc1F` [Compound 50, 2-[(4-chloro-2-fluorophenyl)methoxy]-3,5-difluoro-6-{1-[(7-{[(2S)-oxetan-2-yl]methyl}-3-[5-(trifluoromethyl)-4H-1,2,4-triazol-3-yl]-7H-imidazo[4,5-c]pyridazin-6-yl)methyl]piperidin-4-yl}pyridine], the EC50 is less than 1 nM.

Take `O=C1CN(Cc2nc3cc(-c4nnc(C(F)(F)F)[nH]4)ncc3n2C[C@@H]2CCO2)CCN1c1ccc(F)c(OCc2ccc(Cl)cc2F)c1` [Compound 51, 1-{3-[(4-chloro-2-fluorophenyl)methoxy]-4-fluorophenyl}-4-[(3-{[(2S)-oxetan-2-yl]methyl}-6-[5-(trifluoromethyl)-4H-1,2,4-triazol-3-yl]-3H-imidazo[4,5-c]pyridin-2-yl)methyl]piperazin-2-one]: the concentration for a half-maximal effect (EC50) is less than 1 nM.
